Consider 8 molecules from patent US8835429B2, “Pyrimidine compounds, their use as mTOR kinase and Pl3 kinase inhibitors, and their syntheses” (Wyeth LLC, priority 2009, dated 2014).

Usually IC50 stands for the concentration needed to halve the response being measured.

SMILES strings stand for the structures. Where two headings read alike, the source gives them in different places. Some results are limits rather than exact numbers.

Assay [1] relates to acute lymphoblastic leukemia. Particulars: in vivo; cited from earlier work.
Assay [2] has as its system human tumor xenograft models. As to conditions: cited from earlier work.
Assay [3] deals with T1, mTOR (Homo sapiens, UniProt P42345). Particulars: read-out: mTOR IC50; mTOR complexes (PI103), mTOR enzyme (ZSTK474); cited from earlier work.
Another assay addresses hSMG-1 (Homo sapiens, UniProt Q96Q15). Particulars: read-out: hSMG-1 kinase activity IC50; cited from earlier work.
The target of the next assay is PI3K-alpha (Homo sapiens, UniProt P42336). Nature of the assay: PI3K-alpha fluorescence polarization assay. As to conditions: 20 μM PIP2, 25 μM ATP; read-out: PI3Kα IC50. The class given is biochemical. The procedure, abridged: (§1)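 PIP2 (diC8) and ATP substrate with PI3K in 20 mM HEPES pH 7.5, 2 mM MgCl2, 0.05% CHAPS, 0.01% βME; 1% DMSO final; 30–60 min reaction. Stopped with EDTA plus GST-GRP (70 nM) and TAMRA probe (10 nM); FP (mP) read after 30–90 min, with no-enzyme controls.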
Sequence of PI3K-alpha (P42336 whole entry, species assumed): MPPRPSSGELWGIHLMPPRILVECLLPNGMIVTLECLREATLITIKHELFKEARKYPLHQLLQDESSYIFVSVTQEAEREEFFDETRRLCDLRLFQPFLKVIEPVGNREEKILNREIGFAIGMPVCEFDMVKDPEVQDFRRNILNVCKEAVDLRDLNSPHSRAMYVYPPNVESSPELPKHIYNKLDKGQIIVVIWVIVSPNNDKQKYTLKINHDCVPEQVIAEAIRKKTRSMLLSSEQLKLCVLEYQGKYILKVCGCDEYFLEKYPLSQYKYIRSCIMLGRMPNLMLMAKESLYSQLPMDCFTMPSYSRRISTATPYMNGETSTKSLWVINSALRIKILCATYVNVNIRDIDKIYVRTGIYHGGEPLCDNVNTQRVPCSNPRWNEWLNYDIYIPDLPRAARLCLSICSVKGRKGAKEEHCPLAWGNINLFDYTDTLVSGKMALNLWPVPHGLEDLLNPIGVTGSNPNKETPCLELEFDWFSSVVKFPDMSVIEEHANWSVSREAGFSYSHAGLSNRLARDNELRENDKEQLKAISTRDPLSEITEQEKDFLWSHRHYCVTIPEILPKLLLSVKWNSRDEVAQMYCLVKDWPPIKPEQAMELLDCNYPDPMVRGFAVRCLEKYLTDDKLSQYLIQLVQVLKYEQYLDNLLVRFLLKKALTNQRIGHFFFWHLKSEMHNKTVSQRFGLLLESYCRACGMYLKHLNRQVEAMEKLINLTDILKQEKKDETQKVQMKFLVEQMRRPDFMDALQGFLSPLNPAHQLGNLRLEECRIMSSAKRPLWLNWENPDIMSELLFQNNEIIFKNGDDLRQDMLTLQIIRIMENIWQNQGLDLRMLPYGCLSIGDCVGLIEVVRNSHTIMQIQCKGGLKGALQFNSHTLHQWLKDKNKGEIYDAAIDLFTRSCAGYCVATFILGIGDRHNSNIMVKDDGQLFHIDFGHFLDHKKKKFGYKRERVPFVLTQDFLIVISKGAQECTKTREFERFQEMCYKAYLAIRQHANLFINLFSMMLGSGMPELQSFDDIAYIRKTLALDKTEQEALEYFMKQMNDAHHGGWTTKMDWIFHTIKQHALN
Sequence of PI3K-alpha (P27986 whole entry partner, species assumed): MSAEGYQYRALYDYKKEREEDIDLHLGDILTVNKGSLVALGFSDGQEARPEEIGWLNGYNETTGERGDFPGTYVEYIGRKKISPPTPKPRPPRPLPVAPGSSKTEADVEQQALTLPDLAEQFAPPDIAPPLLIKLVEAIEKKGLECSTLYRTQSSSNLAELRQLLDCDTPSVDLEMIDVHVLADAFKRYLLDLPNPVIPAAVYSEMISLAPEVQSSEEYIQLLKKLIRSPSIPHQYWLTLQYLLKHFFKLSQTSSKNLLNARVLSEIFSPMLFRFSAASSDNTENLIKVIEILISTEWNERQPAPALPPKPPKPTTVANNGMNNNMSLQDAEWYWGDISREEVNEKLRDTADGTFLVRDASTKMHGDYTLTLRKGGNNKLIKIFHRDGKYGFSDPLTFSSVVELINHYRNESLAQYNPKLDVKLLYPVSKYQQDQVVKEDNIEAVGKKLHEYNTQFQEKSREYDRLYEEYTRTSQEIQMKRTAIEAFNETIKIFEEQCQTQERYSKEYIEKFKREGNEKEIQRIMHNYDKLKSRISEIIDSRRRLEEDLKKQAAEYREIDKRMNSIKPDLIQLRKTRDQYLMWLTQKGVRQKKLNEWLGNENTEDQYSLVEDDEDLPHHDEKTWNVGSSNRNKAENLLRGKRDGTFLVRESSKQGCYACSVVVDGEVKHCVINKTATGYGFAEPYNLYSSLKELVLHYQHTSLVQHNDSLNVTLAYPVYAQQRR
Background: Polarisation of emitted light reports the rotation of a fluorescent probe.

For another assay, the target named is PI3K-gamma (Homo sapiens, UniProt P48736). In words: PI3K-gamma fluorescence polarization assay. As to conditions: 20 μM PIP2, 25 μM ATP; read-out: PI3Kγ IC50. The class given is biochemical. The gist of the method: as §1
Sequence of PI3K-gamma (P48736 whole entry, species assumed): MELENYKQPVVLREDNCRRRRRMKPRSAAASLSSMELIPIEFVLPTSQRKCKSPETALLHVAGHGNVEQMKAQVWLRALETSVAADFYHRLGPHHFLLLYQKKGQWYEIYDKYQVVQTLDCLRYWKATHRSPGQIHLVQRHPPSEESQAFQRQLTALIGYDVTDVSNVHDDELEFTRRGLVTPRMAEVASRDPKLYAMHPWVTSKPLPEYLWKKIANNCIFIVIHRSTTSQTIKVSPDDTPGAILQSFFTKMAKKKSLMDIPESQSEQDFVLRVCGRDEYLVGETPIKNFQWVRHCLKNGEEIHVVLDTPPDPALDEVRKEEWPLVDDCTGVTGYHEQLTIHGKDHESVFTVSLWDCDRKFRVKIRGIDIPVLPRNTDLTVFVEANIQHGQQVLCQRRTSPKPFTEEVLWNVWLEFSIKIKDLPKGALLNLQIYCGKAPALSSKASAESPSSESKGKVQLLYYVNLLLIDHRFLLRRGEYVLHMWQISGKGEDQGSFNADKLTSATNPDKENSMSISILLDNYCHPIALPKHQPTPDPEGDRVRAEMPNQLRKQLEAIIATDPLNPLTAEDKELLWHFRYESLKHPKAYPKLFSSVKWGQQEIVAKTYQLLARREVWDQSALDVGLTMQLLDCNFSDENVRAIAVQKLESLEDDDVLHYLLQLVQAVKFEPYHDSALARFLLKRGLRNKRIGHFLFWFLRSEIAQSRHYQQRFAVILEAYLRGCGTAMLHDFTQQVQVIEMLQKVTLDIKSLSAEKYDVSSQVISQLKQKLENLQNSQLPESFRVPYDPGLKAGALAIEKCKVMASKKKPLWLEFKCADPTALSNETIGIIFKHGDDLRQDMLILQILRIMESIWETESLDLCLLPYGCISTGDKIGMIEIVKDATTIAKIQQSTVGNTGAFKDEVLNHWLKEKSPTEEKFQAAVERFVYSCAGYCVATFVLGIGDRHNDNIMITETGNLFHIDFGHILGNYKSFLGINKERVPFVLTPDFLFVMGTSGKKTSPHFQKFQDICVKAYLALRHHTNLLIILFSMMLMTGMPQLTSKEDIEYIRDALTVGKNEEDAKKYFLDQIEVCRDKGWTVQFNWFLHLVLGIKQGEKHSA
For the next assay, the system named is LNCap. Nature of the assay: In vitro cell growth assay (MTS), LNCap. The format is cell-based. As to conditions: LNCaP, 72 h, human prostate line, three days after drug treatment.
The next assay concerns MDA468. Nature of the assay: In vitro cell growth assay (MTS), MDA468. The format is cell-based. Particulars: 72 h, human breast line MDA468, three days after drug treatment, read-out: MDA IC50.
Assay [4] has as its target T1, mTOR. Nature of the assay: mTOR enzyme assay (DELFIA, purified FLAG-TOR, His6-S6K substrate). The class given is biochemical. More on the design: FLAG. As to conditions: 100 μM ATP, 2 hours.

Take `CO[C@H]1C[C@@H]2CC[C@@H](C)[C@@](O)(O2)C(=O)C(=O)N2CCCC[C@H]2C(=O)O[C@H]([C@H](C)C[C@@H]2CC[C@@H](OC(=O)C(C)(CO)CO)[C@H](OC)C2)CC(=O)[C@H](C)/C=C(\C)[C@@H](O)[C@@H](OC)C(=O)[C@H](C)C[C@H](C)/C=C/C=C/C=C/1C` [Torisel]: the “activity in NOS/SCID xenograft mouse model of acute lymphoblastic leukemia” value in [1] is reported as “active”.

`Oc1cccc(-c2nc(N3CCOCC3)c3oc4ncccc4c3n2)c1` [PI103, 3-(4-(4-morpholinyl)pyrido[3′,′:4,5]furo[3,2-d]pyrimidin-2-yl)phenol]: the “activity against human tumor models” value in [2] (I.P. dosing in mice, U87MG, PC3, MDA-MB-468, MDA-MB-435, HCT 116, SKOV3, IGROV-1) was “demonstrated activity”.

As to `FC(F)c1nc2ccccc2n1-c1nc(N2CCOCC2)nc(N2CCOCC2)n1` [ZSTK474, 2-(2-difluoromethylbenzoimidazol-1-yl)-4,6-dimorpholino-1,3,5-triazine], the “tumor growth in mouse human xenograft cancer models” value in assay [2] (chronic oral administration, 400 mg/kg, A549, PC-3, WiDr) is given as “completely inhibited growth”. In addition, the IC50 on mTOR [3] was over 10 µM.

In the case of `COC[C@H]1OC(=O)c2coc3c2[C@@]1(C)C1=C(C3=O)[C@@H]2CCC(=O)[C@@]2(C)C[C@H]1OC(C)=O` [Wortmannin], the IC50 on hSMG-1 is about 60 nM.

With `Cn1c(=O)n(-c2ccc(C(C)(C)C#N)cc2)c2c3cc(-c4cnc5ccccc5c4)ccc3ncc21` [NVP-BEZ-235, 2-methyl-2-(4-(3-methyl-2-oxo-8-(quinolin-3-yl)-2,3-dihydro-1H-imidazo[4,5-c]quinolin-1-yl)phenyl)propanenitrile], the “activity against human tumor models” value in assay [2] (PC-3 and U-87 xenografts) is “demonstrated activity”.

On to `CC(C)Nc1cc(N2C3COCC2COC3)nc(-c2ccc(NC(=O)Nc3ccncc3)cc2)n1` [1-{4-[4-(3,7-dioxa-9-azabicyclo[3.3.1]non-9-yl)-6-(isopropylamino)pyrimidin-2-yl]phenyl}-3-pyridin-4-ylurea], for which the IC50 at PI3K-alpha was 1520 nM; at PI3K-gamma it was 9.24 µM; in the assay with LNCap, 280 nM; in the assay on MDA468 it was 400 nM; against mTOR [4] it was 5 nM.

Turning to `CN1CCN(C(=O)c2ccc(NC(=O)Nc3ccc(-c4nc(C5CCOCC5)cc(N5C6CCC5COC6)n4)cc3)cc2)CC1` [1-{4-[(4-methylpiperazin-1-yl)carbonyl]phenyl}-3-{4-[4-(3-oxa-8-azabicyclo[3.2.1]oct-8-yl)-6-(tetrahydro-2H-pyran-4-yl)pyrimidin-2-yl]phenyl}urea], the half-maximal inhibitory concentration (IC50) was 230 nM on PI3K-alpha; 3.05 µM at PI3K-gamma; at most 0.8 nM with LNCap; 0.8 nM in the assay on MDA468; 0.44 nM on mTOR [4].

Consider `CS(=O)(=O)CCNc1cc(N2C3CCC2COC3)nc(-c2ccc(NC(=O)Nc3cccnc3)cc2)n1` [1-{4-[4-{[2-(methylsulfonyl)ethyl]amino}-6-(3-oxa-8-azabicyclo[3.2.1]oct-8-yl)pyrimidin-2-yl]phenyl}-3-pyridin-3-ylurea], for which the IC50 at PI3K-alpha was 1640 nM; at PI3K-gamma it was at least 10 µM; in the assay with LNCap, 2000 nM; with MDA468, 800 nM; at mTOR [4] it was 5 nM.
